# From patent publication US8809232B2, “Herbicidal compositions comprising 4-amino-3-chloro-5-fluoro-6-(4-chloro-2-fluoro-3-methoxyphenyl) pyridine-2-carboxylic acid or a derivative thereof and halosulfuron, pyrazosulfuron and esprocarb” (Dow Agrosciences LLC, priority 2012, dated 2014)
# Tests used:
# [1] = test system: SCPMA; experiment: In-water applied herbicidal mixtures, greenhouse, transplanted paddy rice weeds; type: in vivo
# Description: (§1) Weed seeds or nutlets of the desired test plant species were planted in puddled soil (mud) prepared by mixing a shredded, non-sterilized mineral soil (50.5 percent silt, 25.5 percent clay, and 24 percent sand, with a pH of about 7.6 and an organic matter content of about 2.9 percent) and water at a 1:1 volumetric ratio. The prepared mud was dispensed in 365 mL aliquots into 16-ounce (oz.) non-perforated plastic pots with a surface area of 86.59 square centimeters (cm^2) leaving a headspace of 3 centimeters (cm) in each pot Mud was allowed to dry overnight prior to planting or transplanting. Rice seeds were planted in Sun Gro MetroMix® 306 planting mixture, which typically has a pH of 6.0 to 6.8 and an organic matter content of about 30 percent, in plastic plug trays. Seedlings at the second or third leaf stage of growth were transplanted into 840 mL of mud contained in 32-oz. non-perforated plastic pots with a surface area of 86.59 cm^2 4 days prior to herbicide application. The paddy was created by filling the headspace of the pots with 2.5 to 3 cm of water. When required to ensure good germination and healthy plants, a fungicide treatment and/or other chemical or physical treatment was applied. The plants were grown for 4-22 days in a greenhouse with an approximate 14 hr photoperiod which was maintained at about 29′C during the day and 26° C. during the night. Nutrients were added as Osmocote® (19:6:12, N:P:K^+ minor nutrients) at 2 g per 16-oz. pot and 4 g per 32-oz. pot. Water was added on a regular basis to maintain the paddy flood, and supplemental lighting was provided with overhead metal halide 1000-Watt lamps as necessary. The plants were employed for testing when they reached the first through fourth true leaf stage.
# (§2) Treatments consisted of the acid or esters of 4-amino-3-chloro-5-fluoro-6-(4-chloro-2-fluoro-3-methoxy-phenyl)pyridine-2-carboxylic acid (compound A) each formulated as an SC (suspension concentrate) and various herbicidal components alone and in combination. Forms of compound A were applied on an acid equivalent basis.
# (§3) Other herbicidal components were applied on an active ingredient basis and included acetolactate synthase (ALS)-inhibiting herbicides formulated as Permit® 75 WDG, pyrazosulfuron-ethyl formulated as Agreen® WG or Sirius® G, and VLCFA inhibiting herbicide esprocarb (technical grade material).
# (§4) Treatment requirements for each compound or herbicidal component were calculated based upon the rates being tested, the concentration of active ingredient or acid equivalent in the formulation, an application volume of 2 mL per component per pot, and an application area of 86.59 cm^2 per pot.
# (§5) For formulated compounds, a measured amount was placed in an individual 100 or 200 mL glass vial and was dissolved in a volume of 1.25% (v/v) Agri-Dex® crop oil concentrate to obtain application solutions.
# (§6) For technical grade compounds, a weighed amount was placed in an individual 100 to 200 mL glass vial and was dissolved in a volume of acetone to obtain concentrated stock solutions. […] The concentrated stock solutions obtained were diluted with an equivalent volume of an aqueous mixture containing 2.5% (v/v) crop oil concentrate so that the final application solutions contained 1.25% (v/v) crop oil concentrate.
# (§7) Applications were made by injecting with a pipetter appropriate amounts of the application solutions, individually and sequentially, into the aqueous layer of the paddy. Control plants were treated in the same manner with the solvent blank. Applications were made so that all treated plant material received the same concentrations of acetone and crop oil concentrate.
# (§8) The treated plants and control plants were placed in a greenhouse as described above and water was added as needed to maintain a paddy flood. […]
# [2] = test system: CYPRO; experiment: as above; type: in vivo, Cyperus rotundus L.
# Description: as §1, §2, §3, §4, §5, §6, §7, §8
# [3] = test system: ECHOR; experiment: as above; type: in vivo, Echinochloa oryzoides (Ard.) Fritsch
# Description: as §1, §2, §3, §4, §5, §6, §7, §8
# [4] = test system: FIMMI; experiment: as above; type: in vivo, Fimbristylis miliacea (L.) Vahl
# Description: as §1, §2, §3, §4, §5, §6
# Applications were made by injecting with a pipetter appropriate amounts of the application solutions, individually and sequentially, into the aqueous layer of the paddy. […]
# [5] = test system: ECHCO; experiment: Post-emergence foliar-applied herbicidal mixtures, greenhouse, direct seeded rice weeds; type: in vivo, Echinochloa colona (L.) Link
# Excerpt: Seeds or nutlets of the desired test plant species were planted in a soil matrix prepared by mixing a loam or sandy loam soil (e.g., 28.6 percent silt, 18.8 percent clay, and 52.6 percent sand, with a pH of about 5.8 and an organic matter content of about 1.8 percent) and calcareous grit in an 80 to 20 ratio. The soil matrix was contained in plastic pots with a volume of 1 quart and a surface area of 83.6 square centimeters (cm^2). When required to ensure good germination and healthy plants, a fungicide treatment and/or other chemical or physical treatment was applied. The plants were grown for 8-22 days in a greenhouse with an approximate 14 hr photoperiod which was maintained at about 29° C. during the day and 26° C. during the night. Nutrients (Peters Excel® 15-5-15 5-Ca 2-Mg and iron chelate) were applied in the irrigation solution as needed and water was added on a regular basis. Supplemental lighting was provided with overhead metal halide 1000-Watt lamps as necessary. The plants were employed for testing when they reached the first through fourth true leaf stage. […]
# (§9) Treatment requirements were calculated based upon the rates being tested, the concentration of active ingredient or acid equivalent in the formulation, and a 12 mL application volume at a rate of 187 L/ha.
# For treatments comprised of formulated compounds, measured amounts of compounds were placed individually in 25 mL glass vials and diluted in a volume of 1.25% (v/v) Agri-Dex® crop oil concentrated to obtain 12× stock solutions. […]
# For treatments comprised of formulated and technical compounds, weighed amounts of the technical materials were placed individually in 25 mL glass vials and dissolved in a volume of 97:3 v/v acetone/DMSO to obtain 12× stock solutions, and measured amounts of the formulated compounds were placed individually in 25 mL glass vials and diluted in a volume of 1.5% (v/v) crop oil concentrate or water to obtain 12× stock solutions. […]
# [6] = test system: ECHCG; experiment: In-water applied herbicidal mixtures, greenhouse, transplanted paddy rice weeds; type: in vivo, Echinochloa crus-galli (L.) Beauv.
# Description: as §1, with “Water was added on a regular basis to maintain the paddy flood, and supplemental lighting was provided with overhead metal halide 1000-Watt lamps as necessary. The plants were employed for testing when they reached the first through fourth true leaf stage.” left out
# as §4
# (§10) For formulated compounds, a measured amount was placed in an individual 100 or 200 mL glass vial and was dissolved in a volume of 1.25% (v/v) Agri-Dex® crop oil concentrate to obtain application solutions. […]
# [7] = test system: SCPJU; experiment: as above; type: in vivo, Schoenoplectus juncoides (Roxb.) Palla
# Description: as §1
# as §2, with “basis. […]” for “basis.”
# as §4, §10
# [8] = test system: DIGSA; experiment: Post-emergence foliar-applied herbicidal mixtures, greenhouse, direct seeded rice weeds; type: in vivo, Digitaria sanguinalis (L.) Scop.
# Excerpt: (§11) Seeds or nutlets of the desired test plant species were planted in a soil matrix prepared by mixing a loam or sandy loam soil (e.g., 28.6 percent silt, 18.8 percent clay, and 52.6 percent sand, with a pH of about 5.8 and an organic matter content of about 1.8 percent) and calcareous grit in an 80 to 20 ratio. The soil matrix was contained in plastic pots with a volume of 1 quart and a surface area of 83.6 square centimeters (cm^2). When required to ensure good germination and healthy plants, a fungicide treatment and/or other chemical or physical treatment was applied. The plants were grown for 8-22 days in a greenhouse with an approximate 14 hr photoperiod which was maintained at about 29° C. during the day and 26° C. during the night. Nutrients (Peters Excel® 15-5-15 5-Ca 2-Mg and iron chelate) were applied in the irrigation solution as needed and water was added on a regular basis. Supplemental lighting was provided with overhead metal halide 1000-Watt lamps as necessary. The plants were employed for testing when they reached the first through fourth true leaf stage.
# as §2, with “(Compound A),” for “(compound A)”, “concentrate),” for “concentrate)”
# (§12) Other herbicidal components were applied on an active ingredient basis and included the acetolactate synthase (ALS)-inhibiting herbicides halosulfuron-methyl formulated as Permit® 75 WDG, pyrazosulfuron-ethyl formulated as Agreen® WG or Sirius® G, and the VLCFA inhibiting herbicide esprocarb (technical grade material).
# as §9
# (§13) For treatments comprised of formulated compounds, measured amounts of compounds were placed individually in 25 mL glass vials and diluted in a volume of 1.25% (v/v) Agri-Dex® crop oil concentrated to obtain 12× stock solutions. […] Application solutions were prepared by adding an appropriate amount of each stock solution (e.g., 1 mL) and diluted to the appropriate final concentrations with the addition of 10 mL of an aqueous mixture of 1.25% (v/v) crop oil concentrate so that the final spray solutions contained 1.25+/−0.05% (v/v) crop oil concentrate.
# (§14) For treatments comprised of technical compounds, weighed amounts can be placed individually in 25 mL glass vials and dissolved in a volume of 97:3 v/v acetone/DMSO to obtain 12× stock solutions. […] Application solutions can be prepared by adding an appropriate amount of each stock solution (e.g., 1 mL) and diluted to the appropriate final concentrations with the addition of 10 mL of an aqueous mixture of 1.5% (v/v) crop oil concentrate so that the final spray solutions contain 1.25% (v/v) crop oil concentrate. When technical materials are used, the concentrated stock solutions can be added to the spray solutions so that the final acetone and DMSO concentrations of the application solutions are 16.2% and 0.5%, respectively.
# (§15) For treatments comprised of formulated and technical compounds, weighed amounts of the technical materials were placed individually in 25 mL glass vials and dissolved in a volume of 97:3 v/v acetone/DMSO to obtain 12× stock solutions, and measured amounts of the formulated compounds were placed individually in 25 mL glass vials and diluted in a volume of 1.5% (v/v) crop oil concentrate or water to obtain 12× stock solutions. […] Application solutions were prepared by adding an appropriate amount of each stock solution (e.g., 1 mL) and diluted to the appropriate final concentrations with the addition of an appropriate amount of an aqueous mixture of 1.5% (v/v) crop oil concentrate so that the final spray solutions contained 1.25% (v/v) crop oil concentrate. […]
# [9] = test system: BRAPP; experiment: as above; type: in vivo; conditions: 4.38 g ae/ha
# Excerpt: as §11
# as §2, with “(Compound A),” for “(compound A)”, “concentrate),” for “concentrate)”
# as §12, §9, §13, §14, §15
# [10] = test system: LEFCH; experiment: as above; type: in vivo, Leptochloa chinensis (L.) Nees; conditions: 35 g ae/ha
# Excerpt: as §11
# as §2, with “(Compound A),” for “(compound A)”, “concentrate),” for “concentrate)”
# as §12, §9, §13, §14, §15
structure (smiles),measurement,setting,value
"COc1c(Cl)ccc(-c2nc(C(=O)O)c(Cl)c(N)c2F)c1F [Compound A Acid, 4-amino-3-chloro-5-fluoro-6-(4-chloro-2-fluoro-3-methoxy-phenyl)pyridine-2-carboxylic acid]",Visual Weed Control (%) - 22 DAA SCPMA Obs,[1]; 8.75 g ae/ha,0%
same,Visual Weed Control (%) - 22 DAA SCPMA Obs,[1]; 17.5 g ae/ha,0%
same,Visual Weed Control (%) - 22 DAA SCPMA Obs,[1]; 35 g ae/ha,0%
same,Visual Weed Control (%) - 20 DAA SCPMA Obs,[1]; 42.4 g ae/ha,0%
same,Visual Weed Control (%) - 20 DAA SCPMA Obs,[1]; 84.8 g ae/ha,0%
same,Visual Weed Control (%) - 21 DAA CYPRO Obs,[2]; 8.75 g ae/ha,30%
same,Visual Weed Control (%) - 21 DAA CYPRO Obs,[2]; 17.5 g ae/ha,50%
same,Visual Weed Control (%) - 21 DAA CYPRO Obs,[2]; 35 g ae/ha,65%
same,Visual Weed Control (%) - 22 DAA ECHOR Obs,[3]; 8.75 g ae/ha,0%
same,Visual Weed Control (%) - 22 DAA ECHOR Obs,[3]; 17.5 g ae/ha,0%
same,Visual Weed Control (%) - 22 DAA ECHOR Obs,[3]; 35 g ae/ha,20%
same,Visual Weed Control (%) - 20 DAA ECHOR Obs,[3]; 42.4 g ae/ha,18%
same,Visual Weed Control (%) - 20 DAA ECHOR Obs,[3]; 84.8 g ae/ha,33%
same,Visual Weed Control (%) - 21 DAA FIMMI Obs,[4]; 8.75 g ae/ha,0%
same,Visual Weed Control (%) - 21 DAA FIMMI Obs,[4]; 17.5 g ae/ha,95%
same,Visual Weed Control (%) - 22 DAA ECHCO Obs,[5]; 4.38 g ae/ha,65%
same,Visual Weed Control (%) - 22 DAA ECHCO Obs,[5]; 8.75 g ae/ha,80%
same,Visual Weed Control (%) - 21 DAA ECHCG Obs,[6]; 8.75 g ae/ha,0%
same,Visual Weed Control (%) - 21 DAA ECHCG Obs,[6]; 17.5 g ae/ha,30%
same,Visual Weed Control (%) - 21 DAA SCPJU Obs,[7]; 8.75 g ae/ha,40%
same,Visual Weed Control (%) - 21 DAA SCPJU Obs,[7]; 17.5 g ae/ha,60%
same,Visual Weed Control (%) - 20 DAA DIGSA Obs,[8]; 21.2 g ae/ha,10%
same,Visual Weed Control (%) - 20 DAA DIGSA Obs,[8]; 42.4 g ae/ha,25%
same,Visual Weed Control (%) - 20 DAA BRAPP Obs,[9],50%
same,Visual Weed Control (%) - 22 DAA BRAPP Obs,[9],45%
CCCCOC(=O)c1nc(-c2ccc(Cl)c(OC)c2F)c(F)c(N)c1Cl [Compound A n-Butyl Ester],Visual Weed Control (%) - 20 DAA SCPMA Obs,[1]; 35 g ae/ha,0%
same,Visual Weed Control (%) - 20 DAA SCPMA Obs,[1]; 70 g ae/ha,0%
same,Visual Weed Control (%) - 20 DAA ECHOR Obs,[3]; 35 g ae/ha,35%
same,Visual Weed Control (%) - 20 DAA ECHOR Obs,[3]; 70 g ae/ha,40%
same,Visual Weed Control (%) - 20 DAA LEFCH Obs,[10],48%
same,Visual Weed Control (%) - 20 DAA DIGSA Obs,[8]; 17.5 g ae/ha,13%
